The numbers were not newly measured in patent publication US8263630B2, “1,2,3-triazoles as 11-beta hydroxysteroid dehydrogenase type I inhibitors” (Bristol-Myers Squibb Company, priority 2008, dated 2012), which cites them from elsewhere.

This data set deals with T1, 11beta-HSD1 (Homo sapiens, UniProt P28845).
T1 construct: host or cells: human patients (liver), in vivo
As to conditions: mildly overweight individuals with type 2 diabetes; seven day treatment; versus placebo.

T1 sequence (P28845 whole entry): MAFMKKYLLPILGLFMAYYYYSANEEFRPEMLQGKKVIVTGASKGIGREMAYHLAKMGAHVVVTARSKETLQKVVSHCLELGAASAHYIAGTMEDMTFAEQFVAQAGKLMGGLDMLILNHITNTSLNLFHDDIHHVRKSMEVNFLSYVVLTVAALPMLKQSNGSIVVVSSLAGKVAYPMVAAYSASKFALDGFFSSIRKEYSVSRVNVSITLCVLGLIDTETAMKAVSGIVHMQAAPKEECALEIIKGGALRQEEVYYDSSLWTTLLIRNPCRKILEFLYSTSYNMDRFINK

For the compound `CC1(C)[C@@H](OC(=O)CCC(=O)O)CC[C@]2(C)[C@H]3C(=O)C=C4[C@@H]5C[C@@](C)(C(=O)O)CC[C@]5(C)CC[C@@]4(C)[C@]3(C)CC[C@@H]12` [carbenoxolone], the hepatic glucose production result is “decrease in hepatic glucose production”.
